Measured values reported in patent US9695155B2, “Herbicidal substituted pyrimidinyloxy benzene compounds” (E. I. DU PONT DE NEMOURS AND COMPANY, priority 2013, dated 2017).

What was measured:
giant foxtail = assay: Test A postemergence; type: in vivo, Setaria faberii; details: 0 to 100 scale, 0 no effect, 100 complete control
Outline: (§1)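 Compounds in non-phytotoxic solvent with surfactant applied as soil spray preemergence, or postemergence to plants 2-10 cm at one- to two-leaf stage, in loam/sand. After approximately 10 days in greenhouse, injury rated visually versus untreated controls, 0 (no effect) to 100 (complete control).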

wheat = assay: Test A postemergence; type: in vivo, Triticum aestivum; details: 0 to 100 scale, 0 no effect, 100 complete control
Outline: as §1

rice = assay: Test B flooded paddy test; type: in vivo, Oryza sativa; details: Flood, 250 g ai/ha; 0 to 100 scale where 0 is no effect and 100 is complete control
Outline: (§2)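 Greenhouse flooded-pot test: compounds dosed into 3 cm standing water over 2-leaf plants, flood held constant. Rated visually after 13–15 days on 0–100 (complete control = 100); a dash marks no test result.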

Heteranthera limosa = assay: Test B flooded paddy test; type: in vivo; details: Flood, 250 g ai/ha; 0 to 100 scale where 0 is no effect and 100 is complete control
Outline: as §2

lambsquarters = assay: Test C postemergence; type: in vivo, Chenopodium album; details: for Plant response rating (0 to 100), Lambsquarters: 16 g ai/ha, 0 is no effect, 100 is complete control
Outline: (§3)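 Sown in loam/sand → sprayed pre-emergence; or grown to 1–4 leaves in peat mix → sprayed post-emergence. Same solvent/surfactant formulation both ways. Greenhouse 13–15 d. Score 0–100 visual.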

morningglory = assay: Test C postemergence; type: in vivo, Ipomoea coccinea; details: for Plant response rating (0 to 100), Morningglory: 16 g ai/ha, 0 is no effect, 100 is complete control
Outline: as §3

pigweed = assay: Test C postemergence; type: in vivo, Amaranthus retroflexus; details: for Plant response rating (0 to 100), Pigweed: 16 g ai/ha, 0 is no effect, 100 is complete control
Outline: as §3

soybean = assay: Test C postemergence; type: in vivo, Glycine max; details: for Plant response rating (0 to 100), Soybean: 16 g ai/ha, 0 is no effect, 100 is complete control
Outline: as §3

oilseed rape = assay: Test C postemergence; type: in vivo, Brassica napus; details: for Plant response rating (0 to 100), Oilseed Rape: 16 g ai/ha, 0 is no effect, 100 is complete control
Outline: as §3

kochia = assay: Test C postemergence; type: in vivo, Kochia scoparia; details: for Plant response rating (0 to 100), Kochia: 16 g ai/ha, 0 is no effect, 100 is complete control
Outline: as §3

velvetleaf = assay: Test C postemergence; type: in vivo, Abutilon theophrasti; details: for Plant response rating (0 to 100), Velvetleaf: 16 g ai/ha, 0 is no effect, 100 is complete control
Outline: as §3

[1] = 31 g ai/ha, postemergence, visual rating, scale 0 to 100 (0 no effect, 100 complete control), 13 to 15 days
[2] = 125 g ai/ha, postemergence, visual rating, scale 0 to 100 (0 no effect, 100 complete control)
[3] = Postemergence, 62 g ai/ha, scale 0 to 100 (0 no effect, 100 complete control), 13 to 15 days
[4] = Postemergence, 62 g ai/ha, scale 0 to 100 (0 no effect, 100 complete control)

Row | SMILES | Plant response rating, Rice (rice) | Plant response rating, Ducksalad (Heteranthera limosa) | Plant response rating (0 to 100), Lambsquarters (lambsquarters; postemergence) | Plant response rating, Lambsquarters (lambsquarters; [2]) | Plant response rating (0 to 100), Morningglory (morningglory; postemergence) | Plant response rating, Morningglory (morningglory; [2]) | Plant response rating (0 to 100), Pigweed (pigweed; postemergence) | Plant response rating, Pigweed (pigweed; [2]) | Plant response rating (0 to 100), Soybean (soybean; postemergence) | Plant response rating, Soybean (soybean; [2]) | Plant response rating (0 to 100), Oilseed Rape (oilseed rape; postemergence) | Plant response rating, Oilseed Rape (oilseed rape; [2]) | Plant response rating (0 to 100), Kochia (kochia; postemergence) | Plant response rating, Kochia (kochia; [2]) | Plant response rating (0 to 100), Velvetleaf (velvetleaf; postemergence) | Plant response rating, Velvetleaf (velvetleaf; [2]) | other results
1 | FCc1cccc(Oc2ncc(Cl)cn2)c1-n1cc(I)cn1 [Compound 245] | 0 | 75 | 50 | 98 | 5 | 85 | 40 | 85 | 40 | 90 | 40 | 80 | 45 | 98 | 5 | 55 | Plant response rating, Foxtail, Giant (giant foxtail; 31 g ai/ha): 0; Plant response rating, Foxtail, Giant (giant foxtail; 125 g ai/ha): 80; Plant response rating, Wheat (wheat; 31 g ai/ha): 20; Plant response rating, Wheat (wheat; 125 g ai/ha): 40; Lambsquarters plant response rating (lambsquarters; [1]): 70; Plant response rating, Lambsquarters (lambsquarters; [3]): 80; Morningglory plant response rating (morningglory; [1]): 30; Plant response rating, Morningglory (morningglory; [3]): 65; Pigweed plant response rating (pigweed; [1]): 55; Plant response rating, Pigweed (pigweed; [3]): 75; Soybean plant response rating (soybean; [1]): 60; Plant response rating, Soybean (soybean; [3]): 60; Oilseed Rape plant response rating (oilseed rape; [1]): 50; Plant response rating, Oilseed Rape (oilseed rape; [3]): 50; Kochia plant response rating (kochia; [1]): 75; Plant response rating, Kochia (kochia; [3]): 90; Velvetleaf plant response rating (velvetleaf; [1]): 10; Plant response rating, Velvetleaf (velvetleaf; [3]): 35
2 | FCc1cn(-c2ccccc2Oc2ncc(Cl)cn2)nn1 [Compound 123] | 0 | 80 | 60 | 85 | 5 | 75 | 70 | 85 | 45 | 90 | 30 | 70 | 50 | 85 | 60 | 100 | Plant response rating, Foxtail, Giant (giant foxtail; 1000 g ai/ha): 90; Plant response rating, Wheat (wheat; 1000 g ai/ha): 70; Plant response rating, Lambsquarters (lambsquarters; [4]): 85; Plant response rating, Morningglory (morningglory; [4]): 55; Plant response rating, Pigweed (pigweed; [4]): 85; Plant response rating, Soybean (soybean; [4]): 65; Plant response rating, Oilseed Rape (oilseed rape; [4]): 60; Plant response rating, Kochia (kochia; [4]): 70; Plant response rating, Velvetleaf (velvetleaf; [4]): 80
